The text below walks through data of ChEMBL document CHEMBL1201862, “PubChem BioAssay data set” (2004).

SMILES strings stand for the structures.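 Each compound was tested at five concentrations against cells in 96-well plates for 48 hours. GI50 marks 50% less growth.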 Activity calls are given as the source filed them. Rule as the data show it: active = GI50 up to about 1.1 µM and inactive = higher.

Assay in all cases: NCI anticancer screen, dose series, 48 h
Assay [1] concerns 786-0.
The subject of assay [2] is A498.
Assay [3] has as its system CAKI-1.
Assay [4] has as its system CCRF-CEM.
Assay [5] deals with COLO 205.
The subject of assay [6] is EKVX.
Assay [7] concerns HCT-116.
For assay [8], the system named is HCT-15.
In assay [9] the test system is HOP-62.
Assay [10] has as its system IGROV-1.
The subject of assay [11] is MDA-MB-435.
The subject of assay [12] is Malme-3M.
Assay [13] relates to NCI/ADR-RES.
In assay [14] the test system is OVCAR-3.
Assay [15] has as its system OVCAR-5.
Assay [16] has as its system OVCAR-8.
For assay [17], the system named is SF-268.
For assay [18], the system named is SN12C.
Assay [19] has as its system U-251.
For assay [20], the system named is UO-31.

As for `CC(C)C(C/C=C1/CC(CO)(COC(=O)c2ccccc2)OC1=O)C(C)C` (stereo not given), the GI50 was 11 µM (inactive) in assay [1]; 18.2 µM (inactive) in [2]; 14.6 µM (inactive) in [3]; 16.8 µM (inactive) in assay [4]; 3.63 µM (inactive) in [5]; 19.2 µM (inactive) in assay [6]. Further, the GI50 in assay [7] is 16 µM (inactive); in [8], 20 µM; in [9], 9.93 µM (inactive); in assay [10], 20.2 µM (inactive); in [11], 26 µM (inactive); in assay [12] it was 12 µM (inactive). Further, the GI50 in assay [13] is 19.2 µM (inactive); in assay [14], 17.5 µM (inactive); in assay [15], 16.9 µM (inactive); in assay [16] it was 22.4 µM (inactive); in [17] it was 16.8 µM (inactive); in assay [18], 15.5 µM (inactive). Moreover, the GI50 is 16.1 µM (inactive) in assay [19] and 16.3 µM (inactive) in [20].
For the molecule `CCOC(=O)C(Cc1ccc(OC(=O)c2ccc(OC)cc2OC)cc1)NC(=O)C(F)(F)F` (stereo not given), the GI50 in [1] is 31.9 µM (inactive); in [2], 15.7 µM (inactive); in assay [3] it was 29 µM (inactive); in [4], 19.2 µM (inactive); in assay [5] it was 18.7 µM (inactive); in assay [6], 21.4 µM (inactive). The GI50 in assay [7] is 34.1 µM (inactive); in assay [8], 21.1 µM; in [9], 21.3 µM (inactive); in assay [10], 19.2 µM (inactive); in assay [11] it was 18.7 µM (inactive); in assay [12] it was 21.3 µM (inactive). The GI50 in assay [13] is 32 µM (inactive); in [14], 19.5 µM (inactive); in assay [15] it was > 100 µM (inactive); in assay [16], 22.8 µM (inactive); in [17] it was 31.1 µM (inactive); in [18], 40.1 µM (inactive). Further, the values for the GI50 in assay [19] and in [20] were 32.1 µM (inactive) and 18 µM (inactive), respectively.
As to `COc1cc([C@@H]2c3cc(O)c(OC)cc3C=C(C(N)=O)[C@H]2C(N)=O)ccc1O`, the GI50 in [1], in assay [2], in assay [3], in assay [4], in assay [5] and in assay [6] was > 100 µM (inactive) each time. The GI50 in [7] was > 100 µM (inactive); in assay [8] it was above 100 µM; in assay [9], > 100 µM (inactive); in assay [10] it was > 100 µM (inactive); in [11] it was > 100 µM (inactive); in assay [12] it was > 100 µM (inactive). In addition, the GI50 in assay [13], in [14], in assay [15], in assay [16], in [17] and in assay [18] was > 100 µM (inactive) in each case. The GI50 in assay [19] and in [20] was > 100 µM (inactive) each time.
For the molecule `CCOC(=O)C(C(=O)OCC)=C1NC2(c3ccccc3Nc3ccc(C)cc32)C(C(=O)OC)S1` (stereo not given), the GI50 is 22.9 µM (inactive) in assay [1]; 10.1 µM (inactive) in [2]; 8.69 µM (inactive) in assay [3]; 15.1 µM (inactive) in assay [4]; 11.6 µM (inactive) in assay [5]; 8.36 µM (inactive) in assay [6]. In addition, the GI50 in assay [7] is 9.64 µM (inactive); in [8], 18.7 µM; in assay [9] it was 80 µM (inactive); in assay [10], 18.4 µM (inactive); in assay [11], 30.5 µM (inactive); in [12], 22.5 µM (inactive). The GI50 in assay [13] is 17.5 µM (inactive); in assay [14] it was 23.1 µM (inactive); in assay [15], 20.9 µM (inactive); in assay [16] it was 29.4 µM (inactive); in assay [17] it was 12.3 µM (inactive); in [18] it was 4.11 µM (inactive). Besides, the GI50 is 23.7 µM (inactive) in assay [19] and 16.5 µM (inactive) in assay [20].
For `CCOC(=O)Nc1cc2c(c(N)n1)N=C(c1ccc3ccccc3c1)CN2`, the GI50 was 0.0809 µM (active) in assay [1]; 0.861 µM (active) in [2]; 1.25 µM (inactive) in assay [3]; 0.015 µM (active) in [4]; 0.499 µM (active) in assay [5]; 2.51 µM (inactive) in assay [6]. Moreover, the GI50 in assay [7] was 0.0225 µM (active); in assay [8] it was 0.0189 µM; in assay [9] it was 0.0564 µM (active); in assay [10], 0.644 µM (active); in assay [11], < 0.01 µM (active); in assay [12], 0.292 µM (active). Further, the GI50 was 0.0335 µM (active) in assay [13]; 0.0494 µM (active) in [14]; 10.5 µM (inactive) in assay [15]; < 0.0208 µM (active) in [16]; 1.92 µM (inactive) in assay [17]; 0.0711 µM (active) in assay [18]. For the same molecule, the GI50 is 0.0339 µM (active) in [19] and 0.301 µM (active) in assay [20].
Regarding `Cc1cccc2c(O)c3c(O)cc(O)cc3nc12`, the GI50 in assay [1], in assay [2], in [3], in [4], in [5] and in assay [6] was > 10 µM (inactive) in each case. Besides, the GI50 was > 10 µM (inactive) in [7]; above 10 µM in [8]; > 10 µM (inactive) in assay [9]; > 10 µM (inactive) in assay [10]; > 10 µM (inactive) in assay [11]; > 10 µM (inactive) in assay [12]. Besides, the GI50 in assay [13], in assay [14], in assay [15], in assay [16], in assay [17] and in assay [18] was > 10 µM (inactive) in each case. Besides, the GI50 in [19] and in [20] was > 10 µM (inactive) in each case.
Turning to `CCCCCCCSCC(O)COC(c1ccccc1)(c1ccccc1)c1ccccc1` (stereo not given), the GI50 in assay [1] is 48.8 µM (inactive); in assay [2], > 100 µM (inactive); in assay [3] it was 60.4 µM (inactive); in [4], 29.7 µM (inactive); in assay [5], 39.8 µM (inactive); in assay [6], 53 µM (inactive). Further, the GI50 in assay [7] was 40.6 µM (inactive); in assay [8], 41.6 µM; in assay [9], > 100 µM (inactive); in [10], > 100 µM (inactive); in assay [11] it was 56.4 µM (inactive); in [12] it was 60 µM (inactive). For the same molecule, the GI50 is 72.1 µM (inactive) in assay [13]; 29.2 µM (inactive) in assay [14]; 34.8 µM (inactive) in [15]; 61.8 µM (inactive) in [16]; 20.3 µM (inactive) in [17]; 37.7 µM (inactive) in assay [18]. For the same molecule, the GI50 was 50.9 µM (inactive) in assay [19] and 5.81 µM (inactive) in [20].
Take `CN(C)CCNC(=O)c1cccc2c(NC(CCC(N)=O)C(=O)O)c3ccccc3nc12` (stereo not given): the GI50 in assay [1] was 9.84 µM (inactive); in [2] it was 16.2 µM (inactive); in assay [3], 11.3 µM (inactive); in assay [4], 18.5 µM (inactive); in assay [5] it was 4.8 µM (inactive); in [6], 14.5 µM (inactive). The GI50 was 6.03 µM (inactive) in [7]; 4.08 µM in assay [8]; 6.4 µM (inactive) in assay [9]; 5.25 µM (inactive) in [10]; 6.14 µM (inactive) in assay [11]; 5.56 µM (inactive) in [12]. The GI50 in [13] is 9.98 µM (inactive); in [14] it was 12.6 µM (inactive); in [15], 9.51 µM (inactive); in assay [16] it was 9.18 µM (inactive); in assay [17], 5.14 µM (inactive); in assay [18], 10.4 µM (inactive). For the same molecule, the GI50 was 8.15 µM (inactive) in assay [19] and 1.55 µM (inactive) in [20].
For `CC1OC(OC2C(OC(=O)[C@]34CCC(C)(C)C[C@H]3C3=CC[C@@H]5[C@@]6(C)CC[C@H](OC7OC(CO)C(O)C(O)C7OC7OC(CO)C(O)C(O)C7O)C(C)(C)[C@@H]6CC[C@@]5(C)[C@]3(C)CC4)OCC(O)C2O)C(O)C(O)C1OC1OCC(O)C(O)C1O` (stereo not given in full), the GI50 was 8.3 µM (inactive) in assay [1]; 2.25 µM (inactive) in [2]; 5.01 µM (inactive) in [3]; 18.5 µM (inactive) in assay [4]; 1.71 µM (inactive) in [5]; 5 µM (inactive) in [6]. Moreover, the GI50 in assay [7] is 11 µM (inactive); in assay [8], 15.7 µM; in assay [9] it was 15.3 µM (inactive); in assay [10], 16 µM (inactive); in assay [11], 2.79 µM (inactive); in [12], 3.82 µM (inactive). Further, the GI50 was 8.97 µM (inactive) in assay [13]; 23.9 µM (inactive) in assay [14]; 7.98 µM (inactive) in assay [15]; 16.5 µM (inactive) in assay [16]; 6.85 µM (inactive) in assay [17]; 3.13 µM (inactive) in [18]. For the same molecule, the GI50 in [19] is 15.1 µM (inactive); in assay [20] it was 2.3 µM (inactive).
For the molecule `CC(C)c1ccc(C(O)(C(=O)O)c2ccc(C(C)C)cc2)cc1`, the GI50 in assay [1] is 51.2 µM (inactive); in assay [2], 57.9 µM (inactive); in [3] it was 45.8 µM (inactive); in assay [4], 49.4 µM (inactive); in [5], > 100 µM (inactive); in [6], 51.8 µM (inactive). For the same molecule, the GI50 in [7] is 36.6 µM (inactive); in assay [8], 46.6 µM; in assay [9], 28.3 µM (inactive); in assay [10], 55.7 µM (inactive); in assay [11], 95.7 µM (inactive); in assay [12], 78.7 µM (inactive). For the same molecule, the GI50 in assay [13] was 73.5 µM (inactive); in assay [14] it was 26.1 µM (inactive); in assay [15], > 100 µM (inactive); in [16], 54.1 µM (inactive); in assay [17], 33.7 µM (inactive); in [18], 46 µM (inactive). Moreover, the figures for the GI50 in [19] and in assay [20] were 18.2 µM (inactive) and 35.3 µM (inactive), respectively.
